Experimental data taken from the supplement of paper PMC10307832.

Key:
Experiment in all cases: relative viability (nuclei count vs DMSO), 5 days (fraction); higher = more cells survive
[1] = compound: C1COCCN1C2=NC(=NC3=C2OC4=C3C=CC=N4)C5=CC(=CC=C5)NC(=O)C6=CN=C(C=C6)N + CC(C)C[C@H](NC(=O)[C@H](Cc1ccccc1)NC(=O)c1cnccn1)B(O)O [Bortezomib] (partner 0.002 µM)
In short: (§1)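 For relative viability, nuclei counts in treated wells were divided by those in vehicle wells. Lung cancer cell lines had been pin-tool dosed in 1536-well plates the day after seeding and cultured for 5 days, then fixed and stained in one step (final 0.05% Triton X-100, 1% formaldehyde, 1 ug/ml Hoechst) and imaged at 4×. Doses were one drug alone or a fixed anchor-drug dose plus five library-drug doses (not always all listed) in √10 steps, and values are duplicate-plate medians.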

[2] = compound: C1COCCN1C2=NC(=NC3=C2OC4=C3C=CC=N4)C5=CC(=CC=C5)NC(=O)C6=CN=C(C=C6)N + O=C(c1cc(Cc2n[nH]c(=O)c3ccccc23)ccc1F)N1CCN(C(=O)C2CC2)CC1 [Olaparib] (partner 8 µM)
In short: as §1

Entinostat + Crizotinib = compound: Nc1ccccc1NC(=O)c1ccc(CNC(=O)OCc2cccnc2)cc1 [Entinostat] + C[C@@H](Oc1cc(-c2cnn(C3CCNCC3)c2)cnc1N)c1c(Cl)ccc(F)c1Cl [Crizotinib] (partner 1 µM)
In short: as §1

Entinostat + Navitoclax = compound: Nc1ccccc1NC(=O)c1ccc(CNC(=O)OCc2cccnc2)cc1 [Entinostat] + CC1(C)CCC(c2ccc(Cl)cc2)=C(CN2CCN(c3ccc(C(=O)NS(=O)(=O)c4ccc(N[C@H](CCN5CCOCC5)CSc5ccccc5)c(S(=O)(=O)C(F)(F)F)c4)cc3)CC2)C1 [Navitoclax] (partner 0.5 µM)
In short: as §1

Cell Line: UMC-11
- relative viability ([1]; first compound 0.02 µM): 0.79
- relative viability ([1]; first compound 0.06325 µM): 0.838
- relative viability ([1]; first compound 0.2 µM): 0.669
- relative viability ([1]; first compound 0.6325 µM): 1.08
- relative viability ([1]; first compound 2 µM): 0.519
- relative viability ([2]; first compound 0.02 µM): 0.374
- relative viability ([2]; first compound 0.06325 µM): 0.37
- relative viability ([2]; first compound 0.2 µM): 0.354
- relative viability ([2]; first compound 0.6325 µM): 0.359
- relative viability ([2]; first compound 2 µM): 0.246
- relative viability (Entinostat + Crizotinib; first compound 0.02 µM): 0.623
- relative viability (Entinostat + Crizotinib; first compound 0.06325 µM): 0.646
- relative viability (Entinostat + Crizotinib; first compound 0.2 µM): 0.363
- relative viability (Entinostat + Crizotinib; first compound 0.6325 µM): 0.109
- relative viability (Entinostat + Crizotinib; first compound 2 µM): 0.0765
- relative viability (Entinostat + Navitoclax; first compound 0.02 µM): 0.29
- relative viability (Entinostat + Navitoclax; first compound 0.06325 µM): 0.302
- relative viability (Entinostat + Navitoclax; first compound 0.2 µM): 0.25
- relative viability (Entinostat + Navitoclax; first compound 0.6325 µM): 0.117
- relative viability (Entinostat + Navitoclax; first compound 2 µM): 0.115
